Assay results reported in PMC7238232, “Acamprosate Is a Substrate of the Human Organic Anion Transporter (OAT) 1 without OAT3 Inhibitory Properties: Implications for Renal Acamprosate Secretion and Drug–Drug Interactions” (Pharmaceutics, 2020).
Like-named read-outs stand apart in the source and are kept apart here. Marks after values point to notes of the source that are not given here.

Columns and labels:
PEPT1 = details: Caco-2 cells, preliminary data; cited from earlier work
HEK293-Flp-In mock cells = assay: CellTiter-Glo cell viability assay, mock cells; details: up to 3300 µM acamprosate; 3 h
OAT3 = target: T1, OAT3 (Homo sapiens, UniProt Q8TCC7); assay: Drug-drug interaction (DDI) index calculation, OAT3; details: oral and intravenous administration of inhibitor
T1 sequence (Q8TCC7 1-542): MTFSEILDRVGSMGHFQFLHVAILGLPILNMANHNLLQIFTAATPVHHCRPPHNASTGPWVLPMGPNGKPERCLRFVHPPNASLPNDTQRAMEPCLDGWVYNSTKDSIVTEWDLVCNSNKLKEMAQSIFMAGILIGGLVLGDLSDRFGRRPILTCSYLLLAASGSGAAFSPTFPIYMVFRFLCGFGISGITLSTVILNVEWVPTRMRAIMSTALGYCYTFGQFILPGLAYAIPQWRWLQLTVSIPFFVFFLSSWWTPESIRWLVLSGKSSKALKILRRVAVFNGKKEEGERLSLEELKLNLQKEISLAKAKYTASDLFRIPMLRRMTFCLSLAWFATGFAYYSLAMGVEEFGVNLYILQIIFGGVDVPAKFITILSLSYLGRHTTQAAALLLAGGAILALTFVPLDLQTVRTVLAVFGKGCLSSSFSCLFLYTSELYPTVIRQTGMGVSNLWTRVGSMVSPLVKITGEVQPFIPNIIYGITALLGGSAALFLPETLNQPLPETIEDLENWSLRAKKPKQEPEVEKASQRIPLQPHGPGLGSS
Source text: (§1) Input values for Cmax,u or C0,u calculated from clinical studies are listed in Appendix B, Table A1.

[1] = no reference given; cited from earlier work
[2] = cited from earlier work
OAT1 = target: T2, OAT1 (Homo sapiens, UniProt Q4U2R8); assay: Drug-drug interaction (DDI) index calculation, OAT1; details: for DDI Index, PAH: acamprosate
T2 sequence (Q4U2R8 1-563): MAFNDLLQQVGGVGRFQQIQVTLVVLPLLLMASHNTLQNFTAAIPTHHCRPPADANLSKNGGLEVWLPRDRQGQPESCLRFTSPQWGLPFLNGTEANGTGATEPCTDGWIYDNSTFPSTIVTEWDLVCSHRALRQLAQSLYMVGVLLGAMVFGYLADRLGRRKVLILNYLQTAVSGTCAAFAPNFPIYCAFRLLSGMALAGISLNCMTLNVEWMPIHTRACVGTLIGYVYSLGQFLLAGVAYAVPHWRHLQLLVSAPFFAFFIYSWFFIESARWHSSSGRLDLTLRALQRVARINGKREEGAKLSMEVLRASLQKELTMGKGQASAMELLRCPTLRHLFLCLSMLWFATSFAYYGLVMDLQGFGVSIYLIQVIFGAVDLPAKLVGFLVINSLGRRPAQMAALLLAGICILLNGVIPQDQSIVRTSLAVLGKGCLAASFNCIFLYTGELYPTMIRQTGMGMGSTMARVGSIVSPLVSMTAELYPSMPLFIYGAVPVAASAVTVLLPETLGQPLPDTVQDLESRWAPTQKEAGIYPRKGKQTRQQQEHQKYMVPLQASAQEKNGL
Source text: as §1

CC(=O)NCCCS(=O)(=O)O [acamprosate, acetylhomotaurinate]
inhibition of substrate transport via PEPT1 (PEPT1): did not inhibit
decrease in cell viability (HEK293-Flp-In mock cells): ≤ 10%
DDI index, substrate E3S (OAT3): <<0.02 ^a, b
logP [1]: −3.57
pKa [1]: 1.83
Cmax ([2]; acamprosate, IV bolus, 333 mg): 153 ± 38 µM
Cmax ([2]; acamprosate, IV bolus, 666 mg): 214 ± 10 µM
Cmax ([2]; acamprosate, IV bolus, 710 mg): 230 ± 64 µM
Cmax ([2]; acamprosate, IV bolus, 1420 mg): 486 ± 106 µM
Cmax ([2]; acamprosate, IV bolus, 2130 mg): 768 ± 149 µM
fu, fraction unbound in plasma ([2]; acamprosate, all doses and routes of Table A1): 1 [5]
Cmax ([2]; acamprosate, oral solution, 333 mg): 1.8 ± 0.8 µM
Cmax ([2]; acamprosate, oral solution, 666 mg): 4.3 ± 1.4 µM
Cmax ([2]; acamprosate, oral solution, 1332 mg): 5 ± 1.7 µM
Cmax ([2]; acamprosate, oral solution, 2664 mg): 8.6 ± 4.1 µM
Cmax ([2]; acamprosate, oral tablet, 666 mg): 1.4 ± 1.1 µM
Cmax ([2]; acamprosate, oral tablet, 1332 mg): 1.5 ± 0.1 µM
plasma levels ([2]; administered orally, humans): 1 to 9 µM
metabolism in humans [2]: not metabolized
share of the eliminated dose accounted for by renal clearance (CLR) [2]: > 95%
renal clearance (CLR) of unbound acamprosate ([2]; healthy adults): 13.4 to 23.4 L/h
fu (plasma protein binding) ([2]; humans): 1
initial unbound plasma concentration (C0,u) ([2]; intravenous (bolus), doses of 333–2130 mg): 154 to 768 µM
unbound steady-state plasma concentration (Cmax,u) ([2]; oral, doses of 333–2130 mg): 2 to 5 µM
DDI Index, PAH (OAT1; IV bolus, 333 mg): 0.12–0.53 *
DDI Index, PAH (OAT1; IV bolus, 666 mg): 0.17–0.75 *
DDI Index, PAH (OAT1; IV bolus, 710 mg): 0.19–0.80 *
DDI Index, PAH (OAT1; IV bolus, 1420 mg): 0.40–1.69 *
DDI Index, PAH (OAT1; IV bolus, 2130 mg): 0.62–2.68 *
DDI Index, PAH (OAT1; oral solution, 333 mg): 0.00–0.01
DDI Index, PAH (OAT1; oral solution, 666 mg): 0.00–0.01
DDI Index, PAH (OAT1; oral solution, 1332 mg): 0.00–0.02
DDI Index, PAH (OAT1; oral solution, 2664 mg): 0.01–0.03
DDI Index, PAH (OAT1; oral tablet, 666 mg): 0.00–0.00
DDI Index, PAH (OAT1; oral tablet, 1332 mg): 0.001–0.01
DDI index, substrate PAH (OAT1; oral administration of inhibitor, range over doses): 0.001–0.008
